Patent US8071645B2, “Systems and methods for treating human inflammatory and proliferative diseases and wounds, with fatty acid metabolism inhibitors and/or glycolytic inhibitors” (The Regents of the University of Colorado, priority 2003, dated 2011)

Tested on: HL60 MDR cells
Test: % death of HL60 MDR cells by flow cytometry
Format: cell-based, human
Settings: HL60 MDR
Experimental: Dot plots as a function of live versus dead cells. The cells were cultured at a concentration of 0.5 to 1 million cells per ml. Cells were untreated or treated with etomoxir or 2-deoxy-D-glucose at a concentration of 2.5 mM at the indicated concentrations for either 24 or 48 hours. In additional experiments, under each of these culture conditions, the cells were cultured for 24 hours at which time point, polyclonal anti-UCP-2 was added at a 1:1000 dilution of stock provided by Alpha Diagnostics, San Antonio, Tex. Cells were harvested and analyzed by flow cytometry. Each dot on the dot plots of FIGS. 1, 3, 5, 7, 9, and 11 represents one cell. Five thousand cells were assessed for forward scatter (FS), as a function of cell size, versus side scatter (SS), as a function of cellular granularity. The upper ellipse represents live cells by these criterion and the lower ellipse in each dot plot represents the dead cells.
Statistical Analysis, Percents, and Geometric Mean Values Percents. Gating is a tool provided by Cell Quest software and allows for the analysis of a certain population of cells. Gating around both the live and dead cell populations gave a percent of the cell numbers that was in each population. After the gates were drawn, a percent value of dead cells was calculated by taking the number of dead cells divided by the number of total cells and multiplying by one hundred.
This example illustrates an embodiment of the invention, where multi-drug resistant cancer cells were exposed to compositions of the invention. Analysis of the cells was performed using flow cytometry. The flow cytometry experiments were performed as follows. The cells were harvested, counted, and resuspended as described above. For DNA staining, the cells were washed and resuspended in ice-cold PBS and fixed by the dropwise addition of 95% ethanol. The cells were then incubated for 30 minutes on ice, washed, and resuspended in PBS containing 1% formaldehyde and 0.01% Tween. The cells were incubated with 50 units of DNAse and washed with PBS containing 5% DNAse. The cells were then incubated with anti DNA Fab (166, kind gift of Dr. Susan Wallace, University of Vermont), then washed and stained with a fluorescein conjugated second step anti-mouse immunoglobulin. The cells were then washed and resuspended in PBS/3% BSA/1% formaldehyde. The cells were stained for intracellular H2O2 using 6-carboxy-2′,7′-dichlorodihydrofluorescein diacetate (DCF-DA, Molecular Probes, Eugene, Oreg.). The cells were incubated with 1 mM DCF-DA for 20 minutes, washed twice in PBS containing 5% fetal calf serum and analyzed using flow cytometry. The mitochondrial membrane potential was assessed using MitoTracker Red (CM-H2XROS, Molecular Probes, Eugene, Oreg.). The cells were resuspended in warm (37° C.) PBS containing a final concentration of 0.5 micromolar of dye. The cells were then incubated for 30 minutes, pelleted, and resuspended in prewarmed medium for analysis. The data was acquired on a Coulter Elite Epics or Excel flow cytometer (Coulter, Hialeah, Fla.) and analyzed with CellQuest software, (Becton Dickinson, San Jose, Calif.). […] Each sample population was classified for cell size (forward scatter) and complexity (side scatter), gated on a population of interest and evaluated using 40,000 cells. Each figure describing flow cytometric data represents one of at least four replicate experiments.
All cell lines in this example were cultured in RPMI 1640 culture medium. The medium was supplemented with 5% fetal bovine serum (“FBS”), 2 mM L-Glutamine, 500 units/mL pennicillin/500 micrograms/mL of streptomycin, 10 mM HEPES Buffer, 10^−5 M 2-mercaptoethanol (“2-ME”), 1 mM MEM Sodium Pyruvate, and 0.04 micrograms/mL of Gentamicin (All reagents from Gibco BRL). The cells were maintained at 37° C. in a humidified atmosphere under 5% CO2 in air using standard cell culture techniques known to those of ordinary skill in the art. […]

## CCOC(=O)C1(CCCCCCOc2ccc(Cl)cc2)CO1 (centres unmarked) [etomoxir, 2-(6-(4-chlorophenoxy)-hexyl)-oxirane-2-carboxylic acid ethyl ester]
24 hours, 2-deoxy-D-glucose at 2.5 mM, etomoxir as in FIG. 27
  percent of cell deaths: 11%
48 hours, concentrations as in FIG. 31
  percent of cell deaths: 14%
